Patent publication US20140377219A1, “HIV INHIBITORS” (New york Blood Center, Inc., priority 2011, published 2014)
Counter-ions that a name gives are not always drawn. Like-named read-outs stand apart in the source and are kept apart here.

Columns and labels:
[1] = test system: laboratory-adapted HIV-1 IIIB strain; experiment: microbe, parasite or virus in culture; settings: Human immunodeficiency virus 1, IIIB, MT2, read-out: MT-2 Cells IC50 (μM ± SD)
TZM-bl cells = experiment: Cytotoxicity in TZM-bl cells (XTT); type: cell-based; settings: for % toxicity at that dose (number in parenthesis), TZM-bl cells: at the dose given as CC50 bound
Method: (§1) The cytotoxicity of small molecules in TZM-bl cells was measured by a colorimetric method using XTT (sodium 3′-(1-(phenylamino)-carbonyl)-3,4-tetrazolium-bis(4-methoxy-6-nitro)benzenesulfonic acid hydrate), a light yellowish tetrazolium dye. Briefly, 100 μl of a compound at graded concentrations was added to equal volume of cells (10^5/ml) in wells of 96-well plates followed by incubation at 37° C. for 3 days and addition of XTT (PolySciences, Inc., Warrington, Pa.).

MT-2 cells = experiment: Cytotoxicity in MT-2 cells (XTT); type: cell-based
Method: (§2) Cytotoxicity of small molecules in MT-2 cells and PBMC was measured by the XTT ((sodium 3′-(1-(phenylamino)-carbonyl)-3,4-tetrazolium-bis(4-methoxy-6-nitro)benzene-sulfonic acid hydrate)) method. Briefly, for MT-2 cells, 100 μl of a small molecule at graded concentrations was added to an equal volume of cells (10^5 cells/ml) in 96-well plates followed by incubation at 37° C. for four days, which ran parallel with the neutralization assay in MT-2 (except medium was added instead of virus). In the case of PBMC, 5×10^5 cells/ml was used and the cytotoxicity was measured after seven days. […] The percentage cytotoxicity and the CC50 values were calculated as described above.

[2] = test system: laboratory-adapted HIV-1 IIIB strain; settings: read-out: MT-2 Cells IC50 (μM ± SD); multi-cycle assay, MT-2 cells, HIV-1 IIIB
[3] = Cytotoxicity in MT-2 cells (XTT); type: cell-based; settings: human; MT-2 cells, XTT, four days
Method: as §2

[4] = Cytotoxicity in TZM-bl cells (XTT); type: cell-based; settings: human; TZM-bl cells, XTT, 3 days; read-out: TZM-bl cells CC50 (μM ± SD)
Method: as §1

[5] = MT-2 cells, XTT, four days, read-out: MT-2 Cells CC50
[6] = TZM-bl cells, XTT, 3 days, read-out: TZM-bl cells CC50 (μM ± SD)

SMILES	IC50 [1] [µM]	melting point	IC50 [2] [µM]	CC50 at 4 days [3] [µM]	CC50 at 3 days [4] [µM]	also measured
CC(=O)N1CCCCC1C(NC(=O)C(=O)Nc1ccc(Cl)cc1)c1nc(C)c(CCO)s1 (centres unmarked) [Compound 13, N^1-((1-acetylpiperidin-2-yl)(5-(2-hydroxyethyl)-4-methylthiazol-2-yl)methyl)-N^2-(4-chlorophenyl)oxalamide]	> 52	–	–	–	–	% toxicity at that dose (number in parenthesis), TZM-bl cells (TZM-bl cells): 20%
CCn1cc(NC(=O)C(=O)Nc2ccc(Cl)cc2)cn1 [Compound 17, N^1-(4-chlorophenyl)-N^2-(1-ethyl-1H-pyrazol-4-yl)oxalamide]	–	232 to 233 °C	–	–	–	CC50 (MT-2 cells; [5]): 10.7 ± 1.6 µM
C[C@@H](NC(=O)C(=O)Nc1ccc(Cl)cc1)[C@H](c1ccccc1)N1CCOCC1 [Compound 19, N^1-(4-chlorophenyl)-N^2-((1S,2R)-1-morpholino-1-phenylpropan-2-yl)oxalamide]	> 24.9	–	–	–	–	–
Cc1nc(C(NC(=O)C(=O)NC2CCCCCC2)C2CCCCN2)sc1CCO (centres unmarked) [Compound 40, N^1-cycloheptyl-N^2-((5-(2-hydroxyethyl)-4-methylthiazol-2-yl)(piperidin-2-yl)methyl)oxalamide.HCl]	–	–	19.6 ± 4	–	–	CC50 (MT-2 cells; [5]): ~60 µM; CC50 (TZM-bl cells; [6]): > 88 µM
Cc1nc(C(NC(=O)CCC(=O)Nc2ccc(Cl)cc2)C2CCCN2)sc1CO (centres unmarked) [Compound 41, N^1-(4-chlorophenyl)-N^4-((5-(hydroxymethyl)-4-methylthiazol-2-yl)(pyrrolidin-2-yl)methyl)succinamide.HCl]	–	–	> 42	–	–	CC50 (MT-2 cells): > 85 µM; CC50 (TZM-bl cells): > 85 µM
O=C(CCC(=O)Nc1ccc(Cl)cc1)NCc1ccc(S(=O)(=O)N2CCOCC2)cc1 [Compound 42, N^1-(4-chlorophenyl)-N^4-(4-(morpholinosulfonyl)benzyl)succinamide]	23.9 ± 1.8	208 to 209 °C (dec.)	–	21.2 ± 1.5	~30	–
O=C(CCC(=O)Nc1ccc(Cl)cc1)NCCCN1CCCC(O)C1 (centres unmarked) [Compound 43, N^1-(4-chlorophenyl)-N^4-(3-(3-hydroxypiperidin-1-yl)propyl)succinamide]	~109	122 to 123 °C	–	~109	~82	–
O=C(CCC(=O)Nc1ccc(Cl)cc1)NCCCN1CCC(O)CC1 [Compound 44, N^1-(4-chlorophenyl)-N^4-(3-(4-hydroxypiperidin-1-yl)propyl)succinamide]	> 109	154 to 155 °C	–	> 109	~109	–
CC1CCCN(c2ccccc2CNC(=O)CCC(=O)Nc2ccc(Cl)cc2)C1 (centres unmarked) [Compound 45, N^1-(4-chlorophenyl)-N^4-(2-(3-methylpiperidin-1-yl)benzyl)succinamide]	> 97	162 to 163 °C	–	> 97	> 97	–
CCC(CN1CCOCC1)NC(=O)CCC(=O)Nc1ccc(Cl)cc1 (centres unmarked) [Compound 46, N^1-(4-chlorophenyl)-N^4-(1-morpholinobutan-2-yl)succinamide]	33.2 ± 2.2	–	–	41.9 ± 1.6	> 109	–
CN1CCN(C(=O)CNC(=O)CCC(=O)Nc2ccc(Cl)cc2)CC1 [Compound 47, N^1-(4-chlorophenyl)-N^4-(2-(4-methylpiperazin-1-yl)-2-oxoethyl)succinamide .HCOOH]	–	–	~48	–	–	CC50 (MT-2 cells): ~97 µM; CC50 (TZM-bl cells): ~36 µM
CC(C)c1nccn1CCCNC(=O)CCC(=O)Nc1ccc(Cl)cc1 [Compound 48, N^1-(4-chlorophenyl)-N^4-(3-(2-isopropyl-1H-imidazol-1-yl)propyl)succinamide. HCOOH]	–	–	> 36	–	–	CC50 (MT-2 cells): > 95 µM; CC50 (TZM-bl cells): > 95 µM
Cc1nccn1CCCNC(=O)CCC(=O)Nc1ccc(Cl)cc1 [Compound 49, N^1-(4-chlorophenyl)-N^4-(3-(2-methyl-1H-imidazol-1-yl)propyl)succinamide. HCOOH]	–	–	> 38	–	–	CC50 (MT-2 cells): > 102 µM; CC50 (TZM-bl cells): 102 µM
Cc1nc2ncccn2c1CN1CCC(NC(=O)CCC(=O)Nc2ccc(Cl)cc2)CC1 [Compound 50, N^1-(4-chlorophenyl)-N^4-(1-((2-methylimidazo[1,2-a]pyrimidin-3-yl)methyl)piperidin-4-yl)succinamide]	> 33	–	–	> 88	> 88	–
Cc1nc(C(NC(=O)CCC(=O)Nc2ccc(Cl)cc2)C2CCCCN2)sc1CO.Cl (centres unmarked) [Compound 51, N^1-(4-chlorophenyl)-N^4-((5-(hydroxymethyl)-4-methylthiazol-2-yl)(piperidin-2-yl)methyl)succinamide.HCl]	–	–	~40	–	–	CC50 (MT-2 cells; [5]): > 82 µM; % toxicity at that dose (number in parenthesis), MT-2 cells (MT-2 cells; at the dose given as CC50 bound): 20%; CC50 (TZM-bl cells; [6]): > 82 µM; % toxicity at that dose (number in parenthesis), TZM-bl cells (TZM-bl cells): 0%
